Laboratory results: patent US8748388B2, “Antitumoral compounds” (Pharma Mar, S.A., priority 2008, dated 2014)
Bridge positions count the residues as written; N and C are the ends. Square brackets hold non-standard residues; d marks the D form. Peptide text beside a SMILES is read from it. I, II: the chains in the order shown. * marks the point of attachment. Quinaldoyl(3-OH) = O=C(c1nc2ccccc2cc1O)*; NMeC = CN[C@@H](CS)C(=O)O; dDap = NC[C@@H](N)C(=O)O

Assays:
[1] = system: MDA-MB-231; test: SRB colorimetric cytotoxicity assay, MDA-MB-231; type: cell-based, human; settings: MDA-MB-231, 48 hours exposure; for CC50: read-out: LC50 (the source's name)
Excerpt: (§1) The aim of this assay is to evaluate the in vitro cytostatic (ability to delay or arrest tumor cell growth) or cytotoxic (ability to kill tumor cells) activity of the samples being tested.
(§2) A colorimetric type of assay, using sulforhodamine B (SRB) reaction has been adapted for a quantitative measurement of cell growth and viability (following the technique described by Skehan P et al. J. Natl. Cancer Inst. 1990, 82, 1107-1112).
(§3) This form of assay employs SBS-standard 96-well cell culture microplates (Faircloth et al. Methods in cell science, 1988, 11(4), 201-205; Mosmann et al. Journal of. Immunological. Methods, 1983, 65(1-2), 55-63). All the cell lines used in this study, derived from different types of human cancer, were obtained from the American Type Culture Collection (ATCC).
(§4) Cells were maintained in Dulbecco's Modified Eagle Medium (DMEM) supplemented with 10% Fetal Bovine Serum (FBS), 2 mM L-glutamine, 100 U/mL penicillin and 100 U/mL streptomycin at 37° C., 5% CO2 and 98% humidity. For the experiments, cells were harvested from subconfluent cultures using trypsinization and resuspended in fresh medium before counting and plating.
(§5) Cells were seeded in 96 well microtiter plates at 5×10^3 cells per well in aliquots of 150 μL, and allowed to attach to the plate surface for 18 hours in drug free medium. One control (untreated) plate of each cell line was fixed (as described below) and used for time zero reference value. Afterwards, test samples were added to the cultures in ten serial dilutions, in aliquots of 50 μL, ranging from 10 to 0.00262 μg/mL. After 48 hours exposure, the antitumor effect was estimated by the SRB method: Briefly, cells were washed twice with PBS, fixed for 15 min in 1% glutaraldehyde solution, rinsed twice in PBS, and stained in 0.4% SRB solution for 30 min at room temperature. Cells were then rinsed several times with 1% acetic acid solution and air-dried. SRB was then extracted in 10 mM trizma base solution and the absorbance measured in an automated spectrophotometric plate reader at 490 nm. Cell survival was expressed as percentage of control cell growth. The final effect of the sample being tested was estimated by applying the NCl algorithm (Boyd M R and Paull K D. Drug Dev. Res. 1995, 34, 91-104).
(§6) Using the mean±SD of triplicate cultures, a dose-response curve was automatically generated using nonlinear regression analysis. Three reference parameters were calculated (NCl algorithm) by automatic interpolation: GI50=concentration that produces 50% growth inhibition; TGI=total growth inhibition (cytostatic effect) and LC50=concentration that produces 50% net cell killing (cytotoxic effect).

[2] = system: HT29; test: SRB colorimetric cytotoxicity assay, HT29; type: cell-based, human; settings: HT29, 48 hours exposure; for CC50: read-out: LC50 (the source's name)
Excerpt: as §1, §2, §3, §4, §5, §6

[3] = system: A549; test: SRB colorimetric cytotoxicity assay, A549; type: cell-based, human; settings: A549, 48 hours exposure; for CC50: read-out: LC50 (the source's name)
Excerpt: as §1, §2, §3, §4, §5, §6

[4] = system: leukemia cell line L1210; settings: Boger and Lee 2000; cited from earlier work

Compound	GI50 [1]	TGI [1]	CC50 [1]	GI50 [2]	TGI [2]	CC50 [2]	GI50 [3]	TGI [3]	CC50 [3]	cytotoxic activity compared with Triostin A [4]
CSC[C@H]1C(=O)NC[C@@H](NC(=O)c2nc3ccccc3cc2O)C(=O)NCC(=O)N(C)[C@H]2CSSC[C@@H](C(=O)N1C)N(C)C(=O)CNC(=O)[C@H](NC(=O)c1nc3ccccc3cc1O)CNC(=O)[C@H](CSC)N(C)C2=O [Azathiocoraline] (I: {Quinaldoyl(3-OH)}-[dDap]G[NMeC][NMeC](Me) / II: {Quinaldoyl(3-OH)}-[dDap]G[NMeC][NMeC](Me); amide I:1-II:C, I:C-II:1; disulfide I:3-II:3)	2.14 µM	>8.90E−06 Molar	> 8.9 µM	3.12 µM	>8.90E−06 Molar	> 8.9 µM	3.74 µM	>8.90E−06 Molar	> 8.9 µM	–
CSC[C@H]1C(=O)N(C)C[C@@H](NC(=O)c2nc3ccccc3cc2O)C(=O)NCC(=O)N(C)[C@H]2CSSC[C@@H](C(=O)N1C)N(C)C(=O)CNC(=O)[C@H](NC(=O)c1nc3ccccc3cc1O)CN(C)C(=O)[C@H](CSC)N(C)C2=O [Compound 2, {[3-HQA-D-Dap(Me&^1)-Gly-NMeCys(&^2)—NMe-Cys(Me)&^3][3-HQA-D-Dap(Me&^3)-Gly-NMeCys(&^2)—NMe-Cys(Me)&^1]]	0.00408 µM	4.26E−08 Molar	0.373 µM	0.0208 µM	1.13E−07 Molar	0.747 µM	0.00339 µM	2.00E−08 Molar	0.165 µM	–
Azatriostin A	–	–	–	–	–	–	–	–	–	two orders of magnitude less active
